Laboratory results as given in ChEMBL document CHEMBL1150838, “Cytotoxic constituents of the fruits of Cananga odorata” (J Nat Prod, 2001).
In brackets after ≈: the same amount, converted by molar mass.

Legend:
HepG2 = test: Cytotoxicity against human HepG2 cells by MTT assay; assay type: functional, cell-based
[1] = Cytotoxicity against human HepG2(2.2.15) cells by MTT assay; assay type: functional, cell-based

C[C@@H]1O[C@@H](OC(C)(C)[C@@H]2CC[C@@]3(C)CCC[C@@](C)(O)[C@@H]3C2)[C@H](O)[C@H](O)[C@H]1O
IC50 (HepG2): 0.01 µg/mL (≈ 0.0259 µM)
IC50 [1]: 0.36 µg/mL (≈ 0.931 µM)

CC1=C2C[C@H](C(C)(C)O[C@@H]3O[C@@H](C)[C@H](O)[C@@H](O)[C@H]3O)CC[C@@]2(C)CCC1
IC50 (HepG2): 3.9 µg/mL (≈ 10.6 µM)
IC50 [1]: 10.6 µg/mL (≈ 28.8 µM)

CC1=C2C[C@H](C(C)(C)O)CC[C@@]2(C)CCC1
IC50 (HepG2): 1.5 µg/mL (≈ 6.75 µM)
IC50 [1]: 0.01 µg/mL (≈ 0.045 µM)

Cc1ccc2c(n1)C[C@H](C(C)(C)O)CC[C@H]2C [CANANODINE]
IC50 (HepG2): 0.22 µg/mL (≈ 0.943 µM)
IC50 [1]: 3.8 µg/mL (≈ 16.3 µM)

Cc1ccnc2c1C(=O)c1ccccc1C2=O [CLEISTOPHOLINE]
IC50 (HepG2): 0.22 µg/mL (≈ 0.986 µM)
IC50 [1]: 0.54 µg/mL (≈ 2.42 µM)

COc1cc(/C=C/C(=O)NCCc2ccc(O)cc2)ccc1O [N-TRANS-FERULOYL TYRAMINE]
IC50 (HepG2): 6.6 µg/mL (≈ 21.1 µM)
IC50 [1]: 1.9 µg/mL (≈ 6.06 µM)
